From ChEMBL document CHEMBL1139739, “Inhibition of Tpl2 kinase and TNFalpha production with quinoline-3-carbonitriles for the treatment of rheumatoid arthritis” (Bioorg Med Chem Lett, 2006) come the findings set out here.

For orientation: IC50 means the midpoint of a concentration-inhibition curve. A lower IC50 goes with inhibition by little substance. Broadly, the inhibition in vivo is the percentage by which the read-out fell short of the control. The low end stands for a response near the control, the high end for a response far below the control.

Assay [1] addresses Mitogen-activated protein kinase kinase kinase 8 (Homo sapiens, UniProt P41279). Kind of assay: Inhibition of Tpl2 kinase by ELISA. In general terms: An ELISA detects its analyte on a solid surface through an enzyme-linked reagent.
The subject of assay [2] is Monocyte. Kind of assay: Inhibition of LPS-induced TNFalpha production in human monocytes by ELISA. It counts as functional.
For a further assay, the system named is Blood. The assay can be described thus: Inhibition of LPS-induced TNFalpha production in human whole blood by ELISA. The assay is classed as functional.
Assay [3] concerns the target CaM kinase II (Homo sapiens) (UniProt Q13557+Q13555+Q13554+Q9UQM7). The assay can be described thus: Inhibition of CAMK2. The assay is classed as protein assay.
Assay [4] has as its system Mus musculus. The assay can be described thus: Inhibition of LPS/D-gal-induced TNFalpha production in C57B1/6 mouse at 25 mg/kg, ip. It counts as functional. Particulars: C57B1/6, ip, route intraperitoneal.
Assay [5] deals with Protein kinase C (PKC) (Homo sapiens) (UniProt O94806+P41743+P17252+P05129+Q05655+P05771+Q05513+Q02156+P24723+Q15139+Q04759). Kind of assay: Inhibition of PKC. The assay is classed as protein assay.
Assay [6] concerns the target Ribosomal protein S6 kinase beta-1 (Homo sapiens) (UniProt P23443). Kind of assay: Inhibition of S6 kinase.
Assay [7] has as its system Monocyte. The assay can be described thus: Inhibition of p38 kinase phosphorylation in LPS-treated human monocytes. The assay is classed as functional.
For assay [8], the system named is Monocyte. The assay can be described thus: Inhibition of cJun phosphorylation in LPS-treated human monocytes. It counts as functional.
In assay [9] the target is Proto-oncogene tyrosine-protein kinase Src (Homo sapiens) (UniProt P12931). Kind of assay: Inhibition of Src kinase.
In assay [10] the test system is Monocyte. The assay can be described thus: Inhibition of MK2 phosphorylation in LPS-treated human monocytes. It counts as functional.
The target in assay [11] is Dual specificity mitogen-activated protein kinase kinase 1 (Homo sapiens) (UniProt Q02750). Kind of assay: Inhibition of MEK.
For assay [12], the system named is Monocyte. The assay can be described thus: Inhibition of IkappaBalpha phosphorylation in LPS-treated human monocytes. The assay is classed as functional.
The target of assay [13] is MAP kinase-activated protein kinase 2 (Homo sapiens) (UniProt P49137). Kind of assay: Inhibition of MK2.
For assay [14], the system named is Mus musculus. Kind of assay: Inhibition of LPS/D-gal-induced TNFalpha production in C57B1/6 mouse at 50 mg/kg, ip. Particulars: C57B1/6, ip, route intraperitoneal. It counts as functional.

Each structure is given as a SMILES string. Activity calls are given as the source filed them. No cut-off for these calls is given here. Bounds are passed on as bounds.

Chain of Mitogen-activated protein kinase kinase kinase 8 (P41279 whole entry): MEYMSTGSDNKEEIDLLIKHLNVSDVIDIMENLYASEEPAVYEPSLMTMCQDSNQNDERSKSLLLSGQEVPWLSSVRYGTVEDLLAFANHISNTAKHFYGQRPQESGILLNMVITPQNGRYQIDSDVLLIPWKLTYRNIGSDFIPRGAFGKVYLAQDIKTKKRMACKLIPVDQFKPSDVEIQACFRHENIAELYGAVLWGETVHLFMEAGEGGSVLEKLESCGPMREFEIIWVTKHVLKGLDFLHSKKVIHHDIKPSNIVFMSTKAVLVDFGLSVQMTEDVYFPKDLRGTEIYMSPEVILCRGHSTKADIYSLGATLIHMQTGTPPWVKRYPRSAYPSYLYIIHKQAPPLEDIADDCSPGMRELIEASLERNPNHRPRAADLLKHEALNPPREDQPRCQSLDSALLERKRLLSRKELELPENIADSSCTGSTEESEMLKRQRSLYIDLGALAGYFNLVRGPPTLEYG
Chain of Proto-oncogene tyrosine-protein kinase Src (Homo sapiens) (P12931 2-536 limits assumed): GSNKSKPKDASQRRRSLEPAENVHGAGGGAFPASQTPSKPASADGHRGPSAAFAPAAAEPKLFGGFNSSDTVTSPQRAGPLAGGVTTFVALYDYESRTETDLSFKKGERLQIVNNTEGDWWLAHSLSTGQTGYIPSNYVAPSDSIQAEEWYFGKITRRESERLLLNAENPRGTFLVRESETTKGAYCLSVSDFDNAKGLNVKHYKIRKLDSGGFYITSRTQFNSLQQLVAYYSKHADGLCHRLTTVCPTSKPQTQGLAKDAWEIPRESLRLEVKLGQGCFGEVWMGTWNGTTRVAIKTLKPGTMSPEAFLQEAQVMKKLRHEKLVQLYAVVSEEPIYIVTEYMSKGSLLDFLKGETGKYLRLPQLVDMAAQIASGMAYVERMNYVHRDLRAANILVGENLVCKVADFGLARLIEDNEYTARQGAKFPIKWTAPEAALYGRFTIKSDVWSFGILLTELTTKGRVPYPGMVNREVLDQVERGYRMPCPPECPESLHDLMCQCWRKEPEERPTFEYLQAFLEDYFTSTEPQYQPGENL
Chain of Dual specificity mitogen-activated protein kinase kinase 1 (Homo sapiens) (Q02750 whole entry): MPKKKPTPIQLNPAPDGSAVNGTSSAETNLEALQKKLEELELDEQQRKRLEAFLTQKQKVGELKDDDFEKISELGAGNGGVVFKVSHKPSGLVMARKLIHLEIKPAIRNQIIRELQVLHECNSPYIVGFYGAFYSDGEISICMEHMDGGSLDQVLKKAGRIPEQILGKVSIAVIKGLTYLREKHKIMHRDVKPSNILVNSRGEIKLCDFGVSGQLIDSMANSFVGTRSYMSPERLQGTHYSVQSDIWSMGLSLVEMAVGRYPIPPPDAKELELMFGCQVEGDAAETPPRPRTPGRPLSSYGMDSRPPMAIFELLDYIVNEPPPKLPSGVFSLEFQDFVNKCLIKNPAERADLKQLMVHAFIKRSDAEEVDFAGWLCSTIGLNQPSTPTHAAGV
Chain of MAP kinase-activated protein kinase 2 (Homo sapiens) (P49137 whole entry, looked up): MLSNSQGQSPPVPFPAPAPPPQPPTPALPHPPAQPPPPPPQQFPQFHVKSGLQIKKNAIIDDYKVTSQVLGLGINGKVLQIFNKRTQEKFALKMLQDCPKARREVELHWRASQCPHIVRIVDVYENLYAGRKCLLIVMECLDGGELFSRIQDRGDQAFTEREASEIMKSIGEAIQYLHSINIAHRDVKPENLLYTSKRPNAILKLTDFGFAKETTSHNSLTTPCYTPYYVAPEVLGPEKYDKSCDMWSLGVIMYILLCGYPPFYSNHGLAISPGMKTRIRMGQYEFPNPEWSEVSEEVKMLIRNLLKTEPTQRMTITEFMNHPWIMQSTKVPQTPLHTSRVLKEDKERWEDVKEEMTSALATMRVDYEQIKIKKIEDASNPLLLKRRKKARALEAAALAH
Chain of Ribosomal protein S6 kinase beta-1 (Homo sapiens) (P23443 whole entry, looked up): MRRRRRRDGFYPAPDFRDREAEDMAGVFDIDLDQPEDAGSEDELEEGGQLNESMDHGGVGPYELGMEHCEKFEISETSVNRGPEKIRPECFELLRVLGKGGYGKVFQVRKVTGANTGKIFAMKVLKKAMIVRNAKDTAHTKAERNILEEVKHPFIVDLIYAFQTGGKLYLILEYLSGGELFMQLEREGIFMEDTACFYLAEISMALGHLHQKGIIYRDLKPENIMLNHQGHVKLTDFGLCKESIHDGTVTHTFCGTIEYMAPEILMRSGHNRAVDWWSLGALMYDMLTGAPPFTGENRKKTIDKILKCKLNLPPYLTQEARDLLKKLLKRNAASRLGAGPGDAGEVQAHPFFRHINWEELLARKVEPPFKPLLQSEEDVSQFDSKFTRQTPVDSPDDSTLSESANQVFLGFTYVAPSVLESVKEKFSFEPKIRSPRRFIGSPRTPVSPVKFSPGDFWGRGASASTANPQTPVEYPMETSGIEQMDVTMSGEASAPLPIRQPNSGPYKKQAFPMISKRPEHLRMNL

As to `CCN1CCC[C@H]1CNc1ccc2ncc(C#N)c(Nc3ccc(F)c(Cl)c3)c2c1`, the IC50 in [1] was 180 nM.
`CC(C)Oc1cc2ncc(C#N)c(Nc3ccc(F)c(Cl)c3)c2cc1NCc1cnc[nH]1` gave a half-maximal inhibitory concentration (IC50) in [1] of more than 40000 nM.
In the case of `Cc1c(CNc2ccc3ncc(C#N)c(Nc4ccc(F)c(Cl)c4)c3c2)ncn1C`, the values for the inhibitory concentration with Monocyte [2] and in the assay on Blood were 0.4 µM and 15.8 µM, respectively. Besides, the IC50 in [1] is 3 nM.
Take `Cc1ncn(CCN2CCOCC2)c1CNc1ccc2ncc(C#N)c(Nc3ccc(F)c(Cl)c3)c2c1`: the results for the inhibitory concentration in the assay with Monocyte [2] and in the assay with Blood were 0.7 µM and 13.2 µM, respectively.
In assay [1], `N#Cc1c(Nc2ccc(F)c(Cl)c2)c2cc(NCc3cnc[nH]3)ccc2[nH]c1=O` registered a half-maximal inhibitory concentration (IC50) of more than 40000 nM.
As to `CCc1ncc(CNc2ccc3ncc(C#N)c(Nc4ccc(F)c(Cl)c4)c3c2)[nH]1`, the IC50 in assay [1] was 640 nM.
As to `N#Cc1cnc2ccc(NCc3c[nH]cn3)cc2c1Nc1ccc(F)c(Cl)c1`, the outcome in assay [3], in assay [9] and in assay [13] was inactive. The same compound had an inhibition in vivo at 25 mg/kg in the assay on Mus musculus [4] of 70%. Further, the inhibitory concentration worked out at 0.46 µM with Monocyte [2] and 3.3 µM with Blood. For the same compound, the Inhibition in [5] is more than 10 µM; in [6], more than 10 µM; with Monocyte [7] it was 2.11 µM; in the assay on Monocyte [8], 5 µM; in the assay with Monocyte [10] it was more than 5 µM; with Monocyte [12] it was more than 5 µM. This compound also gave an IC50 in assay [11] of 2.4 µM.
With `N#Cc1cnc2cnc(NCc3ccccc3)cc2c1Nc1ccc(F)c(Cl)c1`, in assay [1], half-maximal inhibition (IC50) was put at 140 nM.
In the case of `N#Cc1cnc2ccc(NCc3nccs3)cc2c1Nc1ccc(F)c(Cl)c1`, the values for the inhibitory concentration with Monocyte [2] and in the assay with Blood were 0.6 µM and more than 20 µM, respectively.
In the case of `N#Cc1cnc2ccc(NCc3cccc[n+]3[O-])cc2c1Nc1ccc(F)c(Cl)c1`, the inhibitory concentration was found to be 1.7 µM in the assay with Monocyte [2] and 7.8 µM with Blood. 50 mg/kg produced 54% inhibition in vivo in the assay with Mus musculus [14]. Also, in assay [1], half-maximal inhibition (IC50) was put at 11 nM.
`N#Cc1cnc2ccc(CCc3ccccc3)cc2c1Nc1ccc(F)c(Cl)c1` returned an IC50 in assay [1] of more than 10000 nM.
On the same count and under the same terms, to `N#Cc1cnc2ccc(NCCN3CCOCC3)cc2c1Oc1ccc(F)c(Cl)c1` belongs more than 40000 nM; to `N#Cc1cnc2ccc(NCc3ccccn3)cc2c1Nc1ccc(F)c(Cl)c1`, 90 nM; to `Cc1nc2ccc(NCc3cnc[nH]3)cc2c(Nc2ccc(F)c(Cl)c2)c1C#N`, 19000 nM.
Consider `N#Cc1cnc2cc(OC(F)(F)F)c(NCc3cnc[nH]3)cc2c1Nc1ccc(F)c(Cl)c1`, for which the IC50 in assay [1] was more than 40000 nM.
Consider `Cc1[nH]cnc1CNc1ccc2ncc(C#N)c(Nc3ccc(F)c(Cl)c3)c2c1`, for which the inhibitory concentration with Monocyte [2] stood at 0.4 µM; in the assay on Blood it was 7.9 µM. The inhibition in vivo at 50 mg/kg in the assay with Mus musculus [14] is 84%. For the same compound, half-maximal inhibition in assay [1] (IC50) required 3 nM.
As for `CCN1CCC[C@@H]1CNc1ccc2ncc(C#N)c(Nc3ccc(F)c(Cl)c3)c2c1`, 7000 nM corresponded to half-maximal inhibition in assay [1] (IC50).
On the same count and under the same terms, in the case of `N#Cc1cnc2ccc(NCC3CCCN3)cc2c1Nc1ccc(F)c(Cl)c1` (stereo not drawn) it was 30000 nM.
Still for that read-out and setting: to `CC(Nc1ccc2ncc(C#N)c(Nc3ccc(F)c(Cl)c3)c2c1)c1ccccn1` (stereo not drawn) belongs 60 nM.
Same read-out and setting: to `N#Cc1cnc2ccc(NCc3ccc(S(N)(=O)=O)cc3)cc2c1Nc1ccc(F)c(Cl)c1` belongs 110 nM; to `N#Cc1cnc2ccc(Nc3ccccc3)cc2c1Nc1ccc(F)c(Cl)c1`, more than 40000 nM; to `N#Cc1cnc2ccc(NS(=O)(=O)c3ccccc3)cc2c1Nc1ccc(F)c(Cl)c1`, 11500 nM.
`N#Cc1cnc2ccc(NCc3ccccc3)cc2c1Nc1ccc(F)c(Cl)c1`: in [1], the midpoint of inhibition, the IC50, lay at 210 nM.
On the same count and under the same terms, to `N#Cc1cnc2ccc(NCCN3CCOCC3)cc2c1Sc1ccc(F)c(Cl)c1` belongs more than 10000 nM; to `N#Cc1cccc(CNc2ccc3ncc(C#N)c(Nc4ccc(F)c(Cl)c4)c3c2)c1`, 100 nM.
As for `N#Cc1cnc2ccc(NCC3CCCO3)cc2c1Nc1ccc(F)c(Cl)c1` (stereo not drawn), 2200 nM corresponded to half-maximal inhibition in assay [1] (IC50).
